According to patent EP0391644B1, “Aryl-substituted rhodanine derivatives” (ELI LILLY AND COMPANY, priority 1989, dated 1990):
Several values for one entry are separate records, joined by “and”; a condition that tells them apart may be missing. Equal values may be shown once.

How the values were obtained:
inflammation = experiment: Carrageenin Assay; assay type: in vivo; settings: Rattus norvegicus, po, carrageenin-injected hind paws of rats, read-out: Percent Inhibition; for inhibition in vivo at 50 mg/kg: 50 mg/kg orally by gavage
Experimental: The compounds were evaluated for antiinflammatory activity in the test method described by C.A. Winter, Proc. Soc. Exp. Biol. Med., 111, 544 (1962). In this test, inflammation is created by injecting carrageenin into the hind paws of rats. Test compounds are administered prior to injection to determine percent inhibition of the subsequent inflammation in comparison with control animals.

[1] = system: Collagen-Induced Arthritis; experiment: Collagen-Induced Arthritis Assay; assay type: in vivo, inbred Lewis male rats; settings: 5 days per week, hindpaw volume
Experimental: Type II collagen was isolated from bovine articular cartilage by the method of Strawich and Nimni [Biochemistry, 10, 3905 (1971)]. The collagen was dissolved in 0.1 M acetic acid and stored at -20°C. Type II collagen solution was diluted to 2 mg/ml concentration and emulsified thoroughly with an equal volume of incomplete Freund's adjuvant (ICFA). The emulsion containing approximately 0.5 mg of collagen was injected intradermally on day 0 to groups of 6 inbred Lewis male rats (Charles River Breeders; 170-200 g) at various sites in the dorsal area. The hindpaw volumes of each rat were measured and recorded three times a week throughout the test period to assess the inflammatory reaction. The test group animals received compounds under test as suspensions in carboxymethylcellulose vehicle, by oral gavage, 5 days per week (Monday-Friday), beginning on day 1. Control animals received vehicle without a test compound. At the end of the test (day 28 or 30), the blood of these animals was drawn by cardiac puncture and the serum anti-type II collagen antibody levels were estimated by passive hemaglutination technique, using glutaraldehyde treated sheep red cells, to which type II collagen is conjugated [Avrameas et al., Immunochemistry, 6, 67 (1969); Andriopoulos et al., Arth. Rheum., 19, 613 (1976)]. The cellular response or delayed-type hypersensitivity response to type II collagen was measured by the radiometric ear index assay [Kostiala, Immunology, 33, 561 (1977)]. In certain experiments, the bone damage occurring because of immunization with type II collagen and the effects of drugs were determined from the radiographs of the hind-paws of two or three representative animals from each group. Injections of ICFA without collagen II were employed in some rats as a negative control; these rats received only carboxymethycellulose vehicle during the test.
The % inhibition was calculated according to the following formula: % inhibition = [1-(Vt - Vv)/(Vc - Vv)] X 100 [formula] where Vt is the hindpaw volume of a compound-treated animal (test group), Vc is the hindpaw volume of a non-compound-treated animal (carboxymethylcellulose vehicle only-the control group), and Vv is the hindpaw volume of a vehicle (carboxymethylcellulose) treated animal which received ICFA with no collagen II (negative control group).

[2] = system: adjuvant-induced arthritis; experiment: Developing Adjuvant-Induced Arthritis Test in Rats; assay type: in vivo, male Lewis-Wistar rats; settings: Rattus norvegicus, po, 720 h, AUC of uninjected paw volumes, Days 16 through 30, read-out: % Inhibition of Uninjected Paw Volume Inflammation; for inhibition in vivo at 50 mg/kg: 50 mg/kg P.O. x 29
Dystrophic mice (dy/dy) = experiment: Muscular Dystrophy Animal Model; assay type: in vivo
Experimental: Dystrophic mice (dy/dy) were obtained from Jackson Laboratories after weaning (approximately 21 days) and treatment with the compounds shown in Table V was begun at the first sign of dystrophy. The compounds that were tested were administered in the diet and lifespan was measured during the course of treatment. The food and water sources were located in different parts of the cage requiring the animals to walk from the food source to the water source to survive.

[3] = system: ischemia-induced brain damage in the hippocampal CA1 region; experiment: Stroke model in rats; assay type: in vivo, Male Wistar rats; settings: mean ± standard error, scale 0 = no damage to 3 = severe damage of CA1 layer
Description: Strokes were produced in rats by occluding the four arteries that supply blood to the brain according to the following procedure. Male Wistar rats were anesthetized with Metofane and placed into a stereotaxic instrument. A longitudinal incision was made on the dorsal surface of the neck. The neck muscles were reflected to expose the dorsal surface of the spinal column. The two vertebral arteries were exposed where they pass through the first cervical vertebra. Both arteries were permanently occluded by the application of electrocautery. After coagulation of the vertebral arteries, the rat was removed from the stereotaxic instrument and the surgical wound was sutured. Two longitudinal incisions were then made on the ventral surface of the neck. The two common carotid arteries were exposed and dissected free from surrounding nerves and connective tissue. An atraumatic clasp, fabricated mainly from silicon rubber tubing, was placed around each carotid artery in a manner such that the vessel was not traumatized or occluded. The surgical wounds were then closed. The atraumatic clasps were designed in such a manner that they could be tightened to occlude the carotid arteries by pulling on a small silastic thread that was allowed to protrude from the wound. Circulation to the brain through the carotids could be restored by relieving the tension on the silastic threads. After the surgery, the rats were allowed to recover for 24 hours.
On the day of testing, compounds were suspended in 2% acacia and were administered orally at various times before stroke induction. Strokes (cerebral ischemia) were induced by tightening the clasps around the carotids for a period of 30 minutes. During this time, rats in which strokes had successfully been produced lost the righting reflex and became unresponsive to stimuli. After 30 minutes of ischemia, tension on the clasps was removed and blood flow to the brain restored. Rats were again treated with compounds on the morning after the stroke. On the third day after the stroke the animals received an overdose of barbituate anesthetic, and the brain was perfused in situ with 10% neutral, buffered formalin. After perfusion with amounts of formalin adequate to fix the brain, the brains were removed and stored in 10% formalin until histological sections could be prepared.
One of the areas of the brain that is most susceptible to ischemia induced damage both in the rat and the human is the CA1 pyramidal cell layer of the hippocampus. In animals that remain unresponsive for the 30 minute period of ischemia, the CA1 pyramidal cell layer is completely destroyed. This layer of cells was examined microscopically in histological sections prepared from the hippocampus. Brain damage was rated according to the following scale: 0 = no damage, completely intact cell layer 1 = mild damage, one-third of CA1 layer dead 2 = moderate damage, two-thirds of CA1 layer dead 3 = severe damage, complete destruction of CA1 layer
Damage in 10-12 sections from each brain was assessed in order to obtain an accurate estimate of damage. An average damage score was calculated for each treatment group. Scores from treated groups were compared statistically with scores from control groups which received only the vehicle (2% acacia) that was used to suspend the compounds. The level of significance was determined using Student's "t-test".

[4] = 0.03 percent by weight of compound in diet

Compound | % inhibition ([1]; 50 mg/kg by oral gavage) | inhibition in vivo at 50 mg/kg [2] | inhibition in vivo at 50 mg/kg (inflammation) | also measured
CC(C)(C)c1cc(C=C2SC(=S)NC2=O)cc(C(C)(C)C)c1O [Example 1, 5-{[3,5-bis(1,1-dimethylethyl)-4-hydroxyphenyl]-methylene}-2-thioxo-4-thiazolidinone] | 100% and 53% | 41% |  | inhibition in vivo at 30 mg/kg (inflammation; 30 mg/kg orally by gavage): 67%
CC(C)(C)c1cc(C=C2SCNC2=O)cc(C(C)(C)C)c1O [Example 2, 5-{[3,5-bis(1,1-dimethylethyl)-4-hydroxyphenyl]methylene}-4-thiazolidinone] | 100% | 81% | 46% | Average Life Span (Dystrophic mice (dy/dy); [4]): 57 days; Average Life Span (Dystrophic mice (dy/dy); 0.08 percent by weight of compound in diet): 116 days and 73 days; Average Life Span (Dystrophic mice (dy/dy); 0.1 percent by weight of compound in diet): 108 days; Average Life Span (Dystrophic mice (dy/dy); 0.3 percent by weight of compound in diet): 74 days; % inhibition ([1]; 30 mg/kg by oral gavage): 91% and 50%
CC(C)(C)c1cc(CC2SCNC2=O)cc(C(C)(C)C)c1O (stereo not drawn) [Example 3, 5-{[3,5-bis(1,1-dimethylethyl)-4-hydroxyphenyl]methyl}-4-thiazolidinone] | 79% | 10% | 12% | 
COC(=O)N1CSC(=Cc2cc(C(C)(C)C)c(O)c(C(C)(C)C)c2)C1=O [Example 4, 5-{[3,5-bis(1,1-dimethylethyl)-4-hydroxyphenyl]methylene}-4-oxo-3-thiazolidinecarboxylic acid, methyl ester] | 5% | 23% | 65% | 
CCN1CSC(=Cc2cc(C(C)(C)C)c(O)c(C(C)(C)C)c2)C1=O [Example 14, 5-{[3,5-Bis(1,1-dimethylethyl)-4-hydroxyphenyl]methylene}-3-ethyl-4-thiazolidinone] |  | 6% | 43% | 
CCCN1CSC(=Cc2cc(C(C)(C)C)c(O)c(C(C)(C)C)c2)C1=O [Example 15, 5-{[3,5-bis(1,1-dimethylethyl)-4-hydroxyphenyl]methylene}-3-propyl-4-thiazolidinone] |  | 40% | 42% | 
CCCCN1CSC(=Cc2cc(C(C)(C)C)c(O)c(C(C)(C)C)c2)C1=O [Example 16, 5-{[3,5-bis(1,1-dimethylethyl)-4-hydroxyphenyl]methylene}-3-butyl-4-thiazolidinone] |  | 18% | 40% | 
CC(C)(C)c1cc(C=C2SCOC2=O)cc(C(C)(C)C)c1O [Example 17, 4-{[3,5-bis(1,1-dimethylethyl)-4-hydroxyphenyl]methylene}-1,3-oxothiolan-5-one] |  | 61% | 18% | Average Life Span (Dystrophic mice (dy/dy); [4]): 112 days
CC(C)(C)c1cc(C=C2SC(=S)N(C3CC3)C2=O)cc(C(C)(C)C)c1O [Example 18, 5-{[3,5-bis(1,1-dimethylethyl)-4-hydroxyphenyl]methylene}-3-cyclopropyl-2-thioxo-4-thiazolidinone] |  |  | 22% | 
CN(C)N1CSC(=Cc2cc(C(C)(C)C)c(O)c(C(C)(C)C)c2)C1=O [Example 21, 5-{[3,5-bis(1,1-dimethylethyl)-4-hydroxyphenyl]methylene}-3-dimethylamino-4-thiazolidinone] |  | 81% |  | Average Life Span (Dystrophic mice (dy/dy); [4]): 151 days; Damage Score ([3]; 50 mg/kg given orally as a suspension in 2% acacia): 1.9 ± 0.3
CC(C)(C)c1cc(C=C2SCN(CCO)C2=O)cc(C(C)(C)C)c1O [Example 35, 5-{[3,5-bis(1,1-dimethylethyl)-4-hydroxyphenyl]methylene}-3-(2-hydroxyethyl)-4-thiazolidinone] |  |  |  | Average Life Span (Dystrophic mice (dy/dy); 0.05 percent by weight of compound in diet): 107 days; inhibition in vivo at 75 mg/kg ([2]; 75 mg/kg P.O. x 29): 86%; Damage Score ([3]; 100 mg/kg given orally as a suspension in 2% acacia): 0.9 ± 0.4 (p<0.001)
